Values quoted from earlier work as cited in paper PMC8477420 (ChemMedChem, 2020).

Columns and labels:
[1] = tested on: OCI-AML-3 cells; details: monotherapy
[2] = tested on: MOLM-13 cells; details: monotherapy
[3] = tested on: OCI-AML-2 cells; details: monotherapy
[4] = tested on: Bcl-2

Row | SMILES | viability [1] | viability [2] | viability [3] [%] | inhibition of Bcl-2 [4]
1 | Cc1c(-c2c(-c3ccc(F)o3)sc3ncnc(O[C@H](Cc4ccccc4OCc4ccnn4CC(F)(F)F)C(=O)O)c23)ccc(OCCN2CCN(C)CC2)c1Cl [Compound S63845] | 60–70% | 60–70% | 95 | –
2 | COc1ncc(-c2nc3c(n2C(C)C)[C@H](c2ccc(Cl)cc2)N(c2cc(Cl)cn(C)c2=O)C3=O)c(OC)n1 [HDM201] | no reduction | 80% | 80 | –
3 | COc1ccc(C2=N[C@@H](c3ccc(Cl)cc3)[C@@H](c3ccc(Cl)cc3)N2C(=O)N2CCNC(=O)C2)c(OC(C)C)c1 [Nutlin-3a] | – | – | – | low micromolar inhibition
